Assay results published in PubChem BioAssay (NCI).
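Interpolation was linear, between the two tested concentrations surrounding the appropriate level; five concentrations were tested over 48 hours in 96-well plates. The concentration for full growth arrest is given as TGI.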

Columns and labels:
Experiment in all cases: DTP human tumour cell line panel, 48 h
[1] = system: SF-268 CNS
[2] = system: KM12 colon
[3] = system: OVCAR-4 ovarian
[4] = system: LOX IMVI melanoma
[5] = system: SR leukemia
[6] = system: OVCAR-5 ovarian
[7] = system: A549 NSCLC
[8] = system: HCC-2998 colon
[9] = system: SW-620 colon
[10] = system: MALME-3M melanoma
[11] = system: HL-60(TB) leukemia
[12] = system: SF-295 CNS
[13] = system: SK-MEL-28 melanoma
[14] = system: DU-145 prostate
[15] = system: HOP-92 NSCLC
[16] = system: SK-MEL-2 melanoma
[17] = system: HOP-62 NSCLC
[18] = system: UACC-257 melanoma
[19] = system: NCI-H460 lung
[20] = system: OVCAR-8 ovarian

Measured: TGI

COC(OC)C1(c2ccccc2)Oc2ccccc2C1=O (centres undefined)
> 100 µM: all assays above

COc1ccc(-c2cn3c(nc4ccccc43)c(C)n2)cc1
> 96.6 µM: [20]
> 100 µM: all other assays above

NC(N)=NS(=O)(=O)c1ccc(Nc2c3ccccc3nc3ccc(C(=O)Nc4ccc(S(N)(=O)=O)cc4)cc23)cc1
> 100 µM: all assays above

CCC(C#N)N(Cc1ccc(CN(C(=O)c2ccccc2)C(C#N)CC)cc1)C(=O)c1ccccc1 (centres undefined)
90.4 µM: [17]
93 µM: [9]
36.7 µM: [8]
56.8 µM: [16]
49 µM: [18]
84.1 µM: [11]
88.5 µM: [10]
67.7 µM: [2]
35.3 µM: [15]
80.9 µM: [3]
31.4 µM: [4]
not listed: [13] | [19]
> 100 µM: all other assays above

CN(C)c1ccc(/C=C2\C[C@H]3[C@@H]4CCC5=CC(=O)CC[C@]5(C)[C@H]4CC[C@]3(C)C2=O)cc1
72.9 µM: [10]
41.7 µM: [4]
67.3 µM: [18]
51.1 µM: [19]
66.1 µM: [15]
not listed: [8]
> 100 µM: all other assays above

Cc1cc2c(cc1C)C(=O)c1ncccc1C2=O
25 µM: [5]
46.3 µM: [18]
52.9 µM: [10]
30.6 µM: [11]
> 100 µM: all other assays above

COc1ccc(Cc2nc3cc(Cl)ccc3o2)cc1
70.6 µM: [18]
63.8 µM: [16]
56.8 µM: [8]
> 100 µM: all other assays above

COc1cc(O)c2c(=O)c3ccccc3n(C)c2c1
79 µM: [17]
> 100 µM: all other assays above

Nn1c(-c2ccccc2Nc2ccccc2-c2n[nH]c(=S)n2N)n[nH]c1=S
not listed: [7]
> 50 µM: all other assays above

CC(=O)Oc1ccn2nc(C)c(Cc3c(C)nn4ccc(OC(C)=O)cc34)c2c1
68.8 µM: [12]
not listed: [8]
> 100 µM: all other assays above

CC(=O)O[C@@]12[C@@H]3O[C@@]4(O)C[C@]5(C)[C@H]6C[C@@](C(C)C)(O[C@H]5c5ccoc5)O[C@H]1[C@]6(C4)O[C@]2(O)C(C)=CC3(C)C
not listed: [19]
> 100 µM: all other assays above

Cn1c2c(c3c(=O)[nH]ncc31)CCc1ccccc1-2
70.8 µM: [13]
40.6 µM: [18]
55.2 µM: [5]
33.6 µM: [19]
88.5 µM: [10]
35 µM: [4]
60.6 µM: [11]
57.1 µM: [16]
54.9 µM: [2]
not listed: [8]
> 100 µM: all other assays above

CCOC(=O)CCC(NC(=O)N1CCN(c2c(C)nc(C)[nH]c2=O)CC1)C(=O)OCC (centres undefined)
not listed: [16]
> 100 µM: all other assays above

NC(=S)SC1=NNC2(C(=O)N1)c1ccccc1-c1ccccc12
not listed: [6] | [16]
> 10 µM: all other assays above

C/C(=C/CNc1ncnc2c1ncn2CCC(=O)O)CO
not listed: [16]
> 100 µM: all other assays above

CCOC(=O)N/N=C/C1=NN(C(=O)OCC)S(=O)C1C (centres undefined)
not listed: [4]
> 100 µM: all other assays above

N#Cc1cc2c(n(C3OC(CO)C(O)C(O)C3O)c1=S)CCCCC2 (centres undefined)
not listed: [9]
> 100 µM: all other assays above

CSc1sc(C)cc1-c1nsc(=O)o1
not listed: [16] | [17] | [20]
> 100 µM: all other assays above

CCOC(=O)CSc1[nH]c2nc(C)nc(Cl)c2c1C#N
not listed: [6] | [16] | [19]
> 10 µM: all other assays above

CCN(CC)C(=O)C1=C(C)NC(C)=C(C(=O)N(CC)CC)C1
not listed: [20]
> 100 µM: all other assays above

CSc1c(C#N)c(O)n(-c2ccc(Cl)cc2)c(=O)c1C#N
98 µM: [15]
not listed: [12] | [17]
> 100 µM: all other assays above

C[C@@]12C[C@@H](c3ccccc3O1)N1CCSC1=N2
not listed: [7]
> 100 µM: all other assays above

O=C(c1ccsc1)c1cc2c(s1)C(=O)c1ccsc1C2=O
0.982 µM: [16]
0.424 µM: [20]
> 100 µM: [5] | [11]
0.335 µM: [3]
0.296 µM: [14]
1.01 µM: [6]
0.405 µM: [1]
0.434 µM: [2]
0.341 µM: [9]
0.431 µM: [17]
0.367 µM: [19]
1.25 µM: [7] | [15]
1.56 µM: [8]
0.324 µM: [12] | [18]
0.0845 µM: [10]
0.305 µM: [13]

COc1cccc2c3cccc(OC)c3c3[nH]cnc3c12
7.81 µM: [10]
11.9 µM: [8]
2.78 µM: [14]
9.51 µM: [12]
12 µM: [3]
4.56 µM: [2]
3.52 µM: [4]
3.08 µM: [7]
24 µM: [15]
36.1 µM: [18]
10 µM: [6]
3.19 µM: [9]
2.38 µM: [11]
35.2 µM: [17]
5.15 µM: [5]
3.26 µM: [19]
34.3 µM: [16]
9.26 µM: [1]
9.53 µM: [13]

Fc1ccc(C2(CCCN3CCc4[nH]c5cc(F)ccc5c4C3)OCCO2)cc1
24.1 µM: [19]
30.9 µM: [1]
16.5 µM: [18]
26.7 µM: [3]
25.7 µM: [11] | [17]
29 µM: [7]
22 µM: [5]
25.9 µM: [10]
29.8 µM: [2]
27.4 µM: [12]
10.2 µM: [15]
28 µM: [14]
25.6 µM: [13]
20.5 µM: [6]
4.21 µM: [8]
25.4 µM: [4]
27.7 µM: [9]
33.9 µM: [20]
